The test system of data set [1] is olfactory bulbectomized rats. In words: Olfactory bulbectomized model: open field test, sucrose consumption, serum corticosterone and testosterone.
Procedure: Thereafter, all rats received daily intragastric dosing for 20 days. The open field test on the 7th and 14th days of dosing, sucrose consumption on the 18th day of dosing, and serum levels of corticosterone and testosterone on the 20th day of dosing were determined.
(§1) Locomotor activity was measured in custom-made acrylic boxes (Height✕Width✕Length: 40✕52✕52 cm). The boxes were placed underneath cameras and all sessions (the duration of the sessions was 5 min) were recorded and data were later quantified by experimenters blinded to treatments. The bottom surface of the boxes was divided into 16 equal squares. Two parameters were quantified from the sessions: the number of squares each rat crossed with both front paws and the number of rearing episodes. Standing with two front paws off the ground was considered one episode of rearing.
(§2) Rats were exposed to 1% sucrose solution in leak-proof bottles for 1 h per day for 3 consecutive days. […] The weight difference of the bottles before and after the 2-h test was considered the total amount of sucrose consumed by the rats.
The serum corticosterone and testosterone levels were measured following the kit instructions.
The subject of data set [2] is CUMS rats. The data set is described as follows: Chronic unpredictable mild stress (CUMS) model: open field test and sucrose consumption. Conditions: 7.3 mg/kg oral once daily 21 days.
Source text: Briefly, SD rats were randomly exposed to various stressors for 3 weeks. […] No stressor was repeated within 2 days for each rat. The control group was housed in a separate room, with free access to food and water, and not disturbed.
Rats received oral administration of study drugs once daily for 21 consecutive days during the chronic stress exposure period. At the end of the chronic stress and drug treatment period, the open field test (21st day) and amount of sucrose consumption (22nd day) were determined.
as §1, §2
The nature of data set [3]: Blood, brain and hypothalamus distribution after single intragastric dose. Conditions: rats, toludesvenlafaxine 8 mg/kg intragastric. The format is in vivo, Wistar rats.
Procedure: Total brain and hypothalamus distribution study was conducted in Wistar rats (4/sex/group) following a single intragastric dose at 8 mg/kg. […] All tissues were immediately rinsed with 200 μg/ml dichlorovos (as esterase inhibitor) ice-cold saline after collection and then were stored at −80°C until analysis using LC-MS/MS.
In data set [4] the test system is striatum. More on the design: method as in Zhang et al., 2014. Conditions: ref Zhang et al., 2014; cited from earlier work.
Where [5] appears, read: 7.3 mg/kg daily, 20th day of dosing.
Where [6] appears, read: both sexes, Wistar, rat, blood, oral, read-out: Blood concentration.
[7] abbreviates: both sexes, Wistar, rat, brain, oral, read-out: Brain concentration.
Where [8] appears, read: both sexes, Wistar, rat, hypothalamus, oral, read-out: Hypothalamus concentration.

Consider 2 compounds from PMC8476831, “Pharmacological Characterization of Toludesvenlafaxine as a Triple Reuptake Inhibitor” (Frontiers in Pharmacology, 2021).

Read-outs that look alike come from different tables or passages of the source. Marks after values point to notes of the source that are not given here.

Take `CN(C)CC(c1ccc(O)cc1)C1(O)CCCCC1` (stereo not drawn) [DVS, desvenlafaxine succinate monohydrate]: in data set [1] (7.3 mg/kg daily intragastric), the “Moving distance (squares crossed) Day 7” value is recorded as 26.8 ± 7.6 squares crossed, the “Moving distance (squares crossed) Day 14” value is listed as 26.7 ± 10.1 squares crossed, the “Rearing time Day 7” value was 7.0 ± 3.1^d seconds and the “Rearing time Day 14” value is on record as 9.4 ± 3.1^d seconds. Besides, the Sugar consumption rate in data set [1] (7.3 mg/kg daily, 18th day of dosing) is 58.1 ± 26.6%. In data set [1] (setting [5]), the “Corticosterone (serum)” value stood at 394.1 ± 231.6 ng/L and the “Testosterone (serum)” value turned out to be 2.4 ± 1.8 ng/mL. For the same compound, the Sugar consumption rate in data set [2] (day 22) is 82.1 ± 7.4^d %. Also, in data set [2] (open field day 21), the “Numbers of squares crossed” value is 47.0 ± 12.1^e and the Rearing time is recorded as 15.2 ± 3.9^d seconds.

Compound `CN(C)CC(c1ccc(O)cc1)C1(O)CCCCC1` (stereo not drawn) [ODV, O-desmethylvenlafaxine] yielded a concentration at 20 min in data set [3] (both sexes, Wistar, rat, blood, oral, 15 min row (footnote: detected at 20 min)) of 0.0909 ± 0.0335 µg/mL. The concentration at 1 h in data set [3] (setting [6]) was 0.0682 ± 0.0236 µg/mL; in data set [3] (setting [7]), 20.9 ± 6.8 ng/g; in data set [3] (setting [8]), 97.9 ± 58 ng/g. In addition, the concentration at 12 h in data set [3] (setting [6]) is 0.00284 ± 0.00269 µg/mL; in data set [3] (setting [7]), 2.06 ± 1.29 ng/g; in data set [3] (setting [8]), 7.22 ± 6.79 ng/g. The concentration at 15 min in data set [3] (both sexes, Wistar, rat, brain, oral, 15 min, read-out: Brain concentration) worked out at 13.8 ± 8.4 ng/g; in data set [3] (both sexes, Wistar, rat, hypothalamus, oral, 15 min, read-out: Hypothalamus concentration), 92.5 ng/g. Further, the Hypothalamus concentration in data set [3] (15 min) was 92.52 ± 68.23 ng/g. Moreover, the “striatal DA level” value in data set [4] is reported as “does not increase”.
